Test results: publication PMC7428016, “Influence of ligand’s directional configuration, chrysenes as model compounds, on the binding activity with aryl hydrocarbon receptor” (Scientific Reports, 2020)

Experiments:
AhR = molecular target: T1, AhR (Rattus norvegicus, UniProt P41738); assay: H4IIE-luc transactivation bioassay (AhR-mediated potency)
T1 sequence (P41738 10-853): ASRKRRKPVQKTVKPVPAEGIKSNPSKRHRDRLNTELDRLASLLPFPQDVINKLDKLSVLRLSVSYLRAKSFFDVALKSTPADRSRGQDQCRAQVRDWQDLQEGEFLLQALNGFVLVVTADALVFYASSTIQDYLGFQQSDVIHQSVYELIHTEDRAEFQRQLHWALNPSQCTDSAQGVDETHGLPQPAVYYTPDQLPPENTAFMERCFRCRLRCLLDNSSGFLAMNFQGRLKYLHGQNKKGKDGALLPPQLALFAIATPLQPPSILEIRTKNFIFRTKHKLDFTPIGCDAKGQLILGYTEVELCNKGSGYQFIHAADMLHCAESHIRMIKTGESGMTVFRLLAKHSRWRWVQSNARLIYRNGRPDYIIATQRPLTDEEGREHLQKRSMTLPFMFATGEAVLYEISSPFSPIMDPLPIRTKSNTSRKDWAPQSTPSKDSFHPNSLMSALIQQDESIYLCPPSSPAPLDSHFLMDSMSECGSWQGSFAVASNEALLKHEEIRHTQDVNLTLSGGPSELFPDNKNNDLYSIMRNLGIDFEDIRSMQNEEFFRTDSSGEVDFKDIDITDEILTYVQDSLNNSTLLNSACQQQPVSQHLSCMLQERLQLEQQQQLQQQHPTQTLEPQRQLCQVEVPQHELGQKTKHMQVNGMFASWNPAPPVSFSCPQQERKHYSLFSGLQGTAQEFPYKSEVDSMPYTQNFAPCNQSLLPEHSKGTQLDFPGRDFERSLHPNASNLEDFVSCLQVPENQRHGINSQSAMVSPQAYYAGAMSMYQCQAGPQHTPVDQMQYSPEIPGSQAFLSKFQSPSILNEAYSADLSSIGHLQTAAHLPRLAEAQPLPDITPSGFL
Source text: H4IIE cell line derived from rat hepatoma has been reported to continuously express cytochrome P450 protein/mRNA. For this study, H4IIE cells transfected with the luciferase (Luc) reporter gene plasmid (pGudLuc1.1) were used, originally obtained from Jac Aarts, University of Wageningen, The Netherlands and further developed by John Giesy, University of Saskatchewan[44],[45]. Upon ligand binding, AhR in H4IIE-luc is activated and translocated to the nucleus, where heat shock proteins are dissociated from the complex and they form a dimer with the AhR nuclear translocator (ARNT) protein. This complex binds to specific DNA sequences with high affinity, the dioxin-responsive element (DRE). The binding to the DRE results in DNA bending transcriptional activation of adjacent responsive genes.
Acute toxic potencies of chrysene homologues were determined based on an AhR-mediated activity using H4IIE-luc cells, by the method previously reported. […] After the exposure, the activity results were expressed as relative luminescence units that were quantified using a Victor X3 multi label plate reader (PerkinElmer, Waltham, MA). Benzo[a]pyrene was used as a positive control ligand. We converted responses of the H4IIE-luc bioassay to the percentages of the maximum response (%BaPmax) observed for a 50 nM BaP (= 100%BaPmax). All bioassays were repeated four times in triplicate (Table S4 for detail information of in vitro bioassay conditions). […] Estimations of EC50 values of target compounds from the dose–response relationships were basically assumed equal efficacy and parallelism between target compounds and reference compound (benzo[a]pyrene).
Table S4. In vitro transactivation bioassay conditions for evaluating toxicities of chemical compounds.

[1] = Table S1, not marked as estimated; cited from earlier work

SMILES | EC50 (AhR) [µM] | Log Kow [1]
c1ccc2c(c1)cc1ccc3c4ccccc4cc4ccc2c1c43 [Dibenzo[b,def]chrysene] | 14 | 7.28
c1ccc2c(c1)ccc1c2ccc2ccc3ccccc3c21 [Benzo[c]chrysene] | 1.3 | 7.11
Oc1cccc2c1ccc1c3ccccc3ccc21 [1-hydroxychrysene] | 87 | –
c1ccc2c(c1)ccc1c2ccc2c3ccccc3ccc21 [Benzo[a]chrysene] | 20 | 7.11
c1ccc2c(c1)ccc1c3ccccc3ccc21 [Chrysene] | 7.2 | 5.81
c1ccc2c(c1)cc1ccc3cccc4c5ccccc5c2c1c34 [Dibenzo[def,p]chrysene] | 76 | 7.71
Cc1ccc2ccc3c4ccccc4ccc3c2c1 [3-methylchrysene] | 1.1 | –
c1ccc2cc3c(ccc4c5ccccc5ccc34)cc2c1 [Benzo[b]chrysene] | 2.8 | 7.11
Oc1ccc2ccc3c4ccccc4ccc3c2c1 [3-hydroxychrysene] | 140 | –
Cc1ccc2c(ccc3c4ccccc4ccc23)c1 [2-methylchrysene] | 0.66 | –
Oc1ccc2c(ccc3c4ccccc4ccc23)c1 [2-hydroxychrysene] | 59 | –
Cc1cccc2c1ccc1c3ccccc3ccc21 [1-methylchrysene] | 1.9 | –
